This note sets out measurements from patent EP0620225B1, “Cephalosporin derivatives” (Basilea Pharmaceutica AG, priority 1993, dated 1994).

The structures appear in SMILES notation. Converted amounts (≈) assume the structure as drawn. Where only a bound is given, the exact number is not on record here.

Common to all, as to experiment: Antibacterial spectrum (MIC), agar dilution
Format in all cases: cell-based
On the technique in general: In agar dilution, organisms are placed on agar that contains the substance at set levels.

In one assay the test system is S.pyogenes B15. The following applies: Streptococcus pyogenes, read-out: MIC. How it is done:
(§1) In vitro activity was determined by minimum inhibitory concentration in a microorganism spectum by the agar dilution method in Mueller Hinton agar.

The next assay has as its system S.viridans group 016. The following applies: Streptococcus viridans, read-out: MIC. Here is the method: as §1
Another assay deals with C.freundii 43. The following applies: Citrobacter freundii, read-out: MIC. Here is the method:
as §1

The next assay relates to H.influenzae 1. The following applies: Haemophilus influenzae, read-out: MIC. Here is the method: as §1
The next assay relates to P.vulgaris 1028. The following applies: Proteus vulgaris, read-out: MIC. How it is done:
as §1

In the next assay the test system is S.pneumoniae Q19. The following applies: Streptococcus pneumoniae, read-out: MIC. How it is done: as §1
Another assay concerns E.faecalis 6. The following applies: Enterococcus faecalis, read-out: MIC. How it is done: as §1
The test system of another assay is E.cloacae 908SSi. The following applies: Enterobacter cloacae, read-out: MIC. How it is done:
as §1

For the next assay, the system named is S.aureus 734 MRSA. The following applies: Staphylococcus aureus, read-out: MIC. How it is done: as §1
The test system of another assay is S.marcescens 69438. The following applies: Serratia marcescens, read-out: MIC. Here is the method: as §1
The test system of another assay is Acinetobacter sp.51-156. The following applies: SP.51156, read-out: MIC. Here is the method:
as §1

Another assay deals with L.monocytogenes BK23. The following applies: Listeria monocytogenes, read-out: MIC. Here is the method:
as §1

The test system of another assay is K.pneumoniae 418. The following applies: Klebsiella pneumoniae, read-out: MIC. How it is done:
as §1

In a further assay the test system is P.aeruginosa 27853. The following applies: Pseudomonas aeruginosa, read-out: MIC. How it is done: as §1
A further assay concerns C.freundii 902. The following applies: Citrobacter freundii, read-out: MIC. Here is the method:
as §1

For the next assay, the system named is E.cloacae 908R. The following applies: Enterobacter cloacae, read-out: MIC. How it is done:
as §1

In a further assay the test system is N.meningitidis 69480. The following applies: Neisseria meningitidis, read-out: MIC. Here is the method: as §1
In another assay the test system is S.aureus 6538. The following applies: Staphylococcus aureus, read-out: MIC. How it is done:
as §1

The next assay relates to E.coli 25922. The following applies: Escherichia coli, read-out: MIC. Here is the method: as §1
Another assay relates to S.agalactiae QK44. The following applies: Streptococcus agalactiae, read-out: MIC. Here is the method:
as §1

The subject of the next assay is P.mirabilis 2117. The following applies: Proteus mirabilis, read-out: MIC. Here is the method:
as §1

The subject of a further assay is M.morganii 6H-137. The following applies: Morganella morganii, 6H137, read-out: MIC. Here is the method: as §1
A further assay deals with M.catarrhalis RA21. The following applies: Moraxella catarrhalis, read-out: MIC. How it is done: as §1
The next assay relates to X.maltophilia 1AC739. The following applies: Stenotrophomonas maltophilia, read-out: MIC. How it is done: as §1

With `N#CCN1CC/C(=C\C2=C(C(=O)O)N3C(=O)[C@@H](NC(=O)/C(=N\O)c4csc(N)n4)[C@H]3SC2)C1=O` [M, [6R-[3(E),6α,7β(Z)]]-7-[[(2-Amino-4-thiazolyl)(hydroxyimino)acetyl]-amino]-3-[[1-cyanomethyl-2-oxo-3-pyrrolidinylidene]methyl]-8-oxo-5-thia-1-azabicyclo[4.2.0]oct-2-ene-2-carboxylic acid], the MIC in the assay with S.pyogenes B15 is at most 0.06 µg/mL; in the assay on S.viridans group 016 it was 1 µg/mL (≈ 1.99 µM); in the assay with C.freundii 43 it was 8 µg/mL (≈ 15.9 µM); in the assay on H.influenzae 1 it was 0.5 µg/mL (≈ 0.993 µM); in the assay on P.vulgaris 1028, 8 µg/mL (≈ 15.9 µM); in the assay on S.pneumoniae Q19, at most 0.06 µg/mL. For the same compound, the MIC is 1 µg/mL (≈ 1.99 µM) with E.faecalis 6; 1 µg/mL (≈ 1.99 µM) with E.cloacae 908SSi; 4 µg/mL (≈ 7.94 µM) in the assay on S.aureus 734 MRSA; 4 µg/mL (≈ 7.94 µM) with S.marcescens 69438; 8 µg/mL (≈ 15.9 µM) with Acinetobacter sp.51-156; 4 µg/mL (≈ 7.94 µM) in the assay on L.monocytogenes BK23. For the same compound, the MIC was 0.12 µg/mL (≈ 0.238 µM) in the assay on K.pneumoniae 418; 8 µg/mL (≈ 15.9 µM) with P.aeruginosa 27853; 0.25 µg/mL (≈ 0.497 µM) in the assay on C.freundii 902; 16 µg/mL (≈ 31.8 µM) with E.cloacae 908R; at most 0.06 µg/mL in the assay with N.meningitidis 69480; 1 µg/mL (≈ 1.99 µM) with S.aureus 6538. The MIC with E.coli 25922 was at most 0.06 µg/mL; in the assay with S.agalactiae QK44, 0.25 µg/mL (≈ 0.497 µM); with P.mirabilis 2117, at most 0.06 µg/mL; in the assay on M.morganii 6H-137, at most 0.06 µg/mL; with M.catarrhalis RA21 it was 8 µg/mL (≈ 15.9 µM); in the assay with X.maltophilia 1AC739 it was over 32 µg/mL.

In the case of `Nc1nc(/C(=N/O)C(=O)N[C@@H]2C(=O)N3C(C(=O)O)=C(/C=C4\CCN(CC5CC5)C4=O)CS[C@H]23)cs1` [N, [6R-[3(E),6α,7β(Z)]]-7-[[(2-Amino-4-thiazolyl)(hydroxyimino)acetyl]-amino]-3-[[1-cyclopropylmethyl-2-oxo-3-pyrrolidinylidene]methyl]-8-oxo-5-thia-1-azabicyclo[4.2.0]oct-2-ene-2-carboxylic acid], the MIC was at most 0.06 µg/mL with S.pyogenes B15; 1 µg/mL (≈ 1.93 µM) in the assay with S.viridans group 016; 4 µg/mL (≈ 7.71 µM) with C.freundii 43; 0.25 µg/mL (≈ 0.482 µM) with H.influenzae 1; 0.25 µg/mL (≈ 0.482 µM) in the assay with P.vulgaris 1028; at most 0.06 µg/mL with S.pneumoniae Q19. Moreover, the MIC worked out at 1 µg/mL (≈ 1.93 µM) in the assay on E.faecalis 6; 1 µg/mL (≈ 1.93 µM) in the assay on E.cloacae 908SSi; 8 µg/mL (≈ 15.4 µM) in the assay with S.aureus 734 MRSA; 0.5 µg/mL (≈ 0.964 µM) in the assay on S.marcescens 69438; 16 µg/mL (≈ 30.9 µM) in the assay with Acinetobacter sp.51-156; 4 µg/mL (≈ 7.71 µM) in the assay with L.monocytogenes BK23. The MIC worked out at 0.12 µg/mL (≈ 0.231 µM) in the assay with K.pneumoniae 418; 16 µg/mL (≈ 30.9 µM) in the assay with P.aeruginosa 27853; 0.12 µg/mL (≈ 0.231 µM) with C.freundii 902; 8 µg/mL (≈ 15.4 µM) in the assay with E.cloacae 908R; 0.25 µg/mL (≈ 0.482 µM) in the assay with N.meningitidis 69480; 0.5 µg/mL (≈ 0.964 µM) with S.aureus 6538. Moreover, the MIC is at most 0.06 µg/mL with E.coli 25922; 0.5 µg/mL (≈ 0.964 µM) in the assay with S.agalactiae QK44; at most 0.06 µg/mL in the assay on P.mirabilis 2117; at most 0.06 µg/mL with M.morganii 6H-137; 8 µg/mL (≈ 15.4 µM) in the assay on M.catarrhalis RA21; over 32 µg/mL with X.maltophilia 1AC739.
